What was measured:
[1] = system: human colon carcinoma HT-29; assay: Proliferation assay (IC50) under aerobic and hypoxic conditions, HT-29; assay type: cell-based; conditions: for RHT: HT-29, ratio Tirapazamine/test compound under hypoxic conditions; for HCR: HT-29, ratio of IC50 under aerobic and hypoxic conditions; for IC50: Homo sapiens, HT-29, hypoxic (anoxia <0.001% O2), 4 h exposure
Protocol: (§1) Evaluation of the Cytotoxicity of Compounds by Proliferation Assay (IC50) Under Aerobic and Hypoxic Conditions.
(§2) Compounds representative of the invention were evaluated under both aerobic and hypoxic conditions in a proliferation assay (IC50), using two cell lines: human colon carcinoma HT-29, and human cervical carcinoma SiHa.
(§3) Drug exposures were performed in 96-well plates (Nunc) using either a 37° C. humidified incubator (20% O2, 5% CO2) or in the incubator compartment (37° C.) of an anaerobic chamber (Shell Lab) where palladium catalyst scrubbed gas (90% N2, 5% H2, 5% CO2) ensures severe anoxia (<0.001% O2). For each experiment, compounds were simultaneously tested under both oxic and hypoxic conditions against the HT-29 cell line and included TPZ as an independent internal control at the front and back of the assay (n=2). Final data was pooled from a series of seven independent experiments and is calculated using inter-experimental means. In all cases, 8-methyl-5-nitroquinoline was used as a second internal control to confirm that strict hypoxia was present during the experiment. (Siim et al. Br. J. Cancer 1994, 70, 596-603). Cell cultures were grown in αMEM (Gibco) containing 5% heat inactivated FCS and maintained in exponential growth phase. For each individual experiment an appropriate number of cells were seeded (HT-29=1000) into wells in αMEM÷10% FCS+10 mM added glucose+100 μM 2′-deoxycytidine (2′dCyd), and allowed to attach for 3 h. High glucose (final concentration 17 mM) and the presence of 2′-dCyd minimize hypoxia-induced cell cycle arrest. Replicates were then exposed to BTOs, using 2-fold serial dilutions in triplicate, for a further 4 h. Subsequently cells were washed free of compound using complete media (without glucose/2′-dCyd) and allowed to grow for 5 (oxic) or 6 (anoxic) days. Plates were stained as described previously (Wilson et al., J. Med. Chem. 1989, 32, 31-38) and IC50 values determined.
(§4) IC50=The concentration of drug (in micromolar) to reduce viable cell numbers to 50% of those of control cell cultures grown under the same conditions but not exposed to drug
(§5) RHT=Relative hypoxic toxicity is defined as the ratio of concentrations of Tirapazamine/test compound to give equal cell killing under hypoxic conditions.
(§6) HCR=Hypoxic cytotoxicity ratio is defined as the ratio of drug concentrations under aerobic and hypoxic condition to produce equal cell survival (50%) determined by proliferation assay

[2] = system: human cervical carcinoma SiHa; assay: Proliferation assay (IC50) under aerobic and hypoxic conditions, SiHa; assay type: cell-based
Protocol: as §1, §2, §3, §4, §5, §6

[3] = system: murine SCCVII; assay: Clonogenic assay under aerobic and hypoxic conditions, SCCVII; assay type: cell-based; conditions: SCVIII cells; for IC90: Mus musculus, 1 h, hypoxic, 60 min drug exposure, SN (hypoxic), read-out: C10 hypoxic; for HCR: ratio of C10 under aerobic and hypoxic conditions; for RHT: ratio of hypoxic TPZ C10 to hypoxic compound C10
Protocol: Evaluation of the Cytotoxicity of Compounds by Clonogenic Assay Under Aerobic and Hypoxic Conditions.
Compounds representative of the invention were evaluated under both aerobic and hypoxic conditions in clonogenic assays, using three cell lines: human colon carcinoma HT-29, murine SCCVII, and human lung adenocarcinoma LXFL. Clonogenic survival was determined using aerobic and hypoxic SCCVII cell suspensions. Drug exposures were performed using continuously stirred and gassed single cell suspensions (10^6 cells/mL) at 37° C., equilibrated with 5% CO2 in air or N2 for 60 min before drug addition. After a 60 min drug exposure cells were washed by centrifugation and plated to determine colony formation Cytotoxicity was measured as the concentration required to reduce plating efficiency to 10% of controls (C10). The hypoxic cytotoxicity ratio (HCR) was determined as the ratio of the C10 values under aerobic and hypoxic conditions. The relative hypoxic toxicity (RHT) was determined as the ratio of hypoxic TPZ C10 to hypoxic BTO C10. Abbreviations used in Table 2 are:
C10=The concentration of drug (in micromolar) to reduce viable cell numbers to 10% of those of control cell cultures grown under the same conditions but not exposed to drug
as §5
HCR=Hypoxic cytotoxicity ratio is defined as the ratio of drug concentrations under aerobic and hypoxic condition to produce equal cell survival (10%) determined by clonogenic assay

Cc1ccc2c(c1)[n+]([O-])c(NCCCN(C)CCCNC(=O)c1cccc3ccc(-c4ccncc4)nc13)n[n+]2[O-] [Compound 86, N-[3-(Methyl{3-[(6-methyl-1,4-dioxido-1,2,4-benzotriazin-3-yl)amino]propyl}amino)propyl]-2-(4-pyridinyl)-8-quinolinecarboxamide]
RHT [1]: 66
HCR [1]: 168
IC50 [1]: 225 nM
IC50 ([2]; Homo sapiens, hypoxic, 4 h exposure): 105 nM
RHT ([2]; ratio Tirapazamine/test compound under hypoxic conditions): 35
HCR ([2]; ratio of IC50 under aerobic and hypoxic conditions): 136
melting point: 178 to 180 °C

Cl.O=C(NCCCNCCCNc1n[n+]([O-])c2ccccc2[n+]1[O-])c1cccc2nc3ccccc3nc12 [Compound 31, N-[3-({3-[(1,4-dioxido-1,2,4-benzotriazin-3-yl)amino]propyl}amino)propyl]-1-phenazinecarboxamide hydrochloride]
RHT [1]: 163
HCR [1]: 5.3
IC50 [1]: 356 nM
melting point: 163 to 169 °C

Cc1cccc2cc3cccc(C(=O)NCCN(C)CCNc4n[n+]([O-])c5ccccc5[n+]4[O-])c3nc12 [Compound 99, N-{2-[{2-[(1,4-Dioxido-1,2,4-benzotriazin-3-yl)amino]ethyl}(methyl)amino]ethyl}-5-methyl-4-acridinecarboxamide]
IC90 [3]: 290 nM
HCR [3]: 176
RHT [3]: 17.2
RHT [1]: 14
HCR [1]: 25
IC50 [1]: 410 nM
melting point: 148 to 152 °C

CN(CCNC(=O)c1cccc2nc3ccccc3nc12)CCNc1n[n+]([O-])c2ccccc2[n+]1[O-] [Compound 97, N-{2-[{2-[(1,4-Dioxido-1,2,4-benzotriazin-3-yl)amino]ethyl}(methyl)amino]ethyl}-1-phenazinecarboxamide]
melting point: 163 to 165 °C

O=C(NCCCCCCNc1n[n+]([O-])c2ccccc2[n+]1[O-])c1ccnc2ccccc12 [Compound 13, N-{6-[(1,4-Dioxido-1,2,4-benzotriazin-3-yl)amino]hexyl}-4-quinolinecarboxamide]
melting point: 196 to 198 °C

O=C(NCCOCCNc1n[n+]([O-])c2ccccc2[n+]1[O-])c1cccc2[nH]c(-c3ccccc3)nc12 [Compound 25, N-(2-{2-[(1,4-Dioxido-1,2,4-benzotriazin-3-yl)amino]ethoxy}ethyl)-2-phenyl-1H-benzimidazole-4-carboxamide]
melting point: 203 to 207 °C

Cc1ccc2c(c1)[n+]([O-])nc(NCCCNCCCNC(=O)c1cccc3nc4cccc(C)c4nc13)[n+]2[O-] [Compound 77, 9-Methyl-N-[3-({3-[(7-methyl-1,4-dioxido-1,2,4-benzotriazin-3-yl)amino]propyl}amino)propyl]-1-phenazinecarboxamide]
melting point: 119 to 122 °C

O=C(NCCOCCNc1n[n+]([O-])c2ccccc2[n+]1[O-])c1cccc2cccnc12 [Compound 24, N-(2-{2-[(1,4-Dioxido-1,2,4-benzotriazin-3-yl)amino]ethoxy}ethyl)-8-quinolinecarboxamide]
melting point: 168 to 170 °C

Cc1ccc2c(c1)[n+]([O-])nc(NCCCN(C)CCCNC(=O)c1cccc3cc4ccccc4nc13)[n+]2[O-] [Compound 74, N-[3-(Methyl{3-[(7-methyl-1,4-dioxido-1,2,4-benzotriazin-3-yl)amino]propyl}amino)propyl]-4-acridinecarboxamide]
RHT [1]: 44.7
HCR [1]: 95
IC50 [1]: 130 nM
melting point: 166 to 168 °C

Cc1cccc2nc3c(C(=O)NCCCN(C)CCCNc4n[n+]([O-])c5ccccc5[n+]4[O-])cccc3nc12 [Compound 45, N-{3-[{3-[(1,4-Dioxido-1,2,4-benzotriazin-3-yl)amino]propyl}(methyl)amino]-propyl}-9-methyl-4-phenazinecarboxamide]
IC90 [3]: 310 nM
HCR [3]: 23.9
RHT [3]: 29
RHT [1]: 321
HCR [1]: 31
IC50 [1]: 18 nM
melting point: 138 to 142 °C

From patent US20070191372A1, “Dna-targeted benzotriazine 1,4-dioxides and their use in cancer therapy” (Auckland Uniservices Limited, priority 2002, published 2007)
